Test results published in patent US20130130909A1, “DCMU RESISTANCE IN NANNOCHLOROPSIS” (priority 2011, published 2013).

Experiments:
[1] = tested on: algae of genus Nannochloropsis ("W2"); assay: DCMU incubation and fluorescence under low actinic light, Nannochloropsis culture; format: cell-based; details: 100 nanomolar DCMU
Protocol: Typically, DCMU is instantaneously efficacious at concentrations in the 0.1 micromolar to 50 micromolar range. The inventors herein discovered that algae of the genus Nannochloropsis, however, generally requires higher concentrations and relatively lengthy incubation periods for the effects of DCMU to take place.
(§1) FIG. 3 (“FIG. 3”) is a graph of relative fluorescence rise versus percentage contaminating species for the algae of genus Chlorella as referred to in FIG. 2. In FIG. 3, the impact of the actinic light is seen in the relative fluorescence rise to the maximum fluorescence yield observed during an intense saturating pulse, during the low level actinic light treatment for the Chlorella culture, the same rise being absent from the Nannochloropsis culture.

algae of genus Chlorella = assay: DCMU and fluorescence under low actinic light, Chlorella culture; format: cell-based; details: 100 nanomolar DCMU
Excerpt: as §1

[2] = tested on: weed algae of genus Tetraselmis; assay: DCMU administered to 1 million liter open pond raceway systems with Nannochloropsis cultures invaded by Tetraselmis; format: in vivo
Protocol: The inventors utilized commercially available DCMU at a field research site to kill the persistent weed algae of genus Tetraselmis. DCMU was administered to six 1 million liter open pond raceway systems wherein Nannochloropis cultures were cultivated at a density of approximately 270 milligrams per liter. Tetraselmis invasion in the ponds is shown in FIG. 6, and is quantified in Table 2 as a percentage of mass. The higher the percentage of mass, the higher the Tetraselmis invasion. The six 1 million liter open pond raceway systems are denoted in FIG. 6, Table 1, and Table 2 as Pond A1, Pond A2, Pond A3, Pond B1, Pond B2, and Pond B3.
Consequently, as little as 100 grams, and as much as 400 grams, were needed. The commercial DCMU source was 90% DCMU by mass, so 90 grams and 360 grams effective amounts of DCMU (M.W. 233 amu) in 1 million liters of volume converts to DCMU concentrations of 0.38 micromolar and 1.55 micromolar, respectively.
Note “D” denotes the dumping of the contents of the pond.

[3] = corrected for 90% DCMU by mass, 1 million liters

CN(C)C(=O)Nc1ccc(Cl)c(Cl)c1 [DCMU, 3-(3,4-dichlorophenyl)-1,1-dimethylurea]
resistance of Nannochloropsis to DCMU ([1]; 24 hour incubation period): completely resistant | effect of actinic light on PSII reaction centers in presence of DCMU, Nannochloropsis ([1]; 50 micromolar quanta m^-2 s^-1 actinic light, FIG. 1): barely has an effect | effect of actinic light on PSII reaction centers in presence of DCMU, Chlorella (algae of genus Chlorella; 50 micromolar quanta m^-2 s^-1 actinic light, FIG. 2): completely closes PSII reaction centers | herbicidal effect on Chlorella (algae of genus Chlorella; Chlorella isolated from an invaded pond): strong herbicidal effect | effective DCMU concentration, lowest ([2]; 90 grams in 1 million liters): 0.38 µM | effective DCMU concentration, highest ([2]; 360 grams in 1 million liters): 1.55 µM | effective amount of DCMU, highest [2, 3]: 360 grams | effective amount of DCMU, lowest [2, 3]: 90 grams
